We go through 14 compounds from ChEMBL document CHEMBL4304806, “Triazolo-azepine Inhibitors of γ-Secretase and Their Methods of Use” (ACS Med Chem Lett, 2019).

In the experiment the target is Gamma-secretase. The experiment is described as follows: Inhibition of gamma secretase in human H4 cells over expressing human APP695 harboring K595N/M596L Swedish double mutant assessed as reduction in Abeta42 production level after 24 hrs by Alphalisa assay. The experiment is classed as cell-based.
For the compound `Cc1cn(C23CC(Nc4nc5n(n4)CCCC[C@@H]5c4cccc(Cl)c4)(C2)C3)cn1`, the IC50 (commonly the concentration that inhibits the measured activity by half) is 15 nM. As for `Cc1cn(C23CC(Nc4nc5n(n4)CCCC[C@H]5c4ccc(Cl)cc4)(C2)C3)cn1`, the IC50 is 23 nM. Consider `Cc1cn(C23CCC(Nc4nc5n(n4)CCCC[C@H]5c4cc(F)cc(Cl)c4)(CC2)CC3)cn1`, for which the IC50 was 14 nM. In the case of `Cc1cn(C23CC(Nc4nc5n(n4)CCCC[C@@H]5c4ccc(F)cc4)(C2)C3)cn1`, the IC50 turned out to be 25 nM. On to `Cc1cn(C23CC(Nc4nc5n(n4)CCCC[C@H]5c4cccc(Cl)c4)(C2)C3)cn1`, for which the IC50 worked out at 16 nM. With `Cc1cn(C23CCC(Nc4nc5n(n4)CCCC[C@@H]5c4cc(F)cc(Cl)c4)(CC2)CC3)cn1`, the IC50 worked out at 15 nM. As for `Cc1cn(C23CC(Nc4nc5n(n4)CCCC[C@@H]5c4cc(F)cc(Cl)c4)(C2)C3)cn1`, the IC50 was 8 nM. As to `Cc1cn(C23CC(Nc4nc5n(n4)CCCC[C@H]5c4ccc(F)c(F)c4)(C2)C3)cn1`, the IC50 was 27 nM. For the compound `Cc1cn(C23CC(Nc4nc5n(n4)CCCC[C@@H]5c4ccc(F)c(F)c4)(C2)C3)cn1`, the IC50 was 44 nM. Under `Cc1cn(C23CC(Nc4nc5n(n4)CCCC[C@H]5c4ccc(F)cc4)(C2)C3)cn1` stands 31 nM; under `Cc1cn(C23CCC(Nc4nc5n(n4)CCCC[C@@H]5c4ccc(F)c(F)c4)(CC2)CC3)cn1`, 39 nM. Regarding `Cc1cn(C23CC(Nc4nc5n(n4)CCCC[C@@H]5c4ccc(Cl)cc4)(C2)C3)cn1`, the IC50 stood at 26 nM. For the compound `Cc1cn(C23CCC(Nc4nc5n(n4)CCCC[C@H]5c4ccc(F)c(F)c4)(CC2)CC3)cn1`, the IC50 is 49 nM. As for `Cc1cn(C23CC(Nc4nc5n(n4)CCCC[C@H]5c4cc(F)cc(Cl)c4)(C2)C3)cn1`, the IC50 was 14 nM.
